Reference: patent US20240285631A1, “METHODS OF TREATING VASCULAR MALFORMATIONS” (priority 2023, published 2024)

Legend:
[1] = system: retinal ECs of BMP9/10 Abs-treated Fucci2 animals; assay: Endothelial cell cycle state in BMP9/10 Abs-treated Fucci2 reporter pups; assay type: in vivo, mouse; conditions: BMP9/10 Abs + CDK4/6i, P7 Fucci2
Excerpt: (§1) All animal protocols and procedures were approved by the University of Virginia Animal Care and Use Committee and complied with all ethical regulations. Cdh5Cre^ERT21Rha^43 and Alk1^flox/flox were gifted from Drs. Ralf Adams and Paul Oh, respectively. R26p-Fucci2 (Fucci2) (Accession #CDB0203T)^44 and C57bl/6 mice were purchased from Riken and Jax, respectively. Cdh5Cre^ERT2 mice were crossed with Alk1^flox/flox mice (6-8-week-old) to generate Alk1EC^iKO pups. Cre activity in Alk1EC^iKO was induced in pups at P3 via a single intraperitoneal (i.p.) injection of Tamoxifen (Tx; Sigma T5648, […] of 4 mg/ml, resuspended in 10% ethanol and 90% corn oil). Alk1^flox/flox littermates were used as controls. Alk1EC^iKO mice were crossed with Fucci2 mice to generate Alk1EC^iKO-Fucci2 pups.

VEGF-A signaling = assay: VEGF-A-induced AKT phosphorylation in Alk1 siRNA-silenced HUVECs; assay type: cell-based, human; conditions: treated or not with Palbociclib
Excerpt: Next, we treated HUVECs with Alk1 siRNA to silence Alk1 and test the VEGF-A-induced response, with or without Palbociclib treatment, using pAKT activation as a readout.

[2] = system: vascular anomalies in lungs and intestinal tracts of anti-BMP9/10-treated pups; assay: Blue latex dye vascular perfusion of lungs and duodenum in BMP9/10 Abs-treated pups; assay type: in vivo, mouse; conditions: P7, BMP9/10 Abs + CDK4/6i
Excerpt: Vascular perfusion assessed using blue latex dye in lungs (FIGS. 10C-D), duodenum (FIGS. 10E-F) and brain (FIGS. 10G-H) from control, BMP9/10 Abs-treated, BMP9/10 Abs- and CDK4/6i-treated P7 animals. Lung samples have been clarified. Quantifications of intrapulmonary artery diameter (FIG. 10D) and intestinal capillary diameter (FIG. 10F). Red arrows indicate intestinal capillaries (N=3 to 7 animals/group. Data are mean±SEM, one-way ANOVA with Holm-Šidàk's multiple comparison test, **p≤0.01, *p≤0.05, ns p>0.05). […] We then analyzed the effects of BMP9/10 antibodies and CDK4/6i treatment on lungs, brains, and intestinal tracts, which are commonly affected by vascular malformations in HHT patients. To visualize vascular anomalies in these tissues, we performed intracardiac injections of blue latex silicon dye in P7 control, and anti-BMP9/10-treated pups, with or without CDK4/6i treatment following the dosing protocol as shown in FIG. 2A. […] P7 pups were deeply anesthetized with isoflurane using a nose cone and a thoracotomy was performed to expose the heart. For brain and gastrointestinal vasculature perfusions, the right atrium was cut and an insulin syringe (27 G) pre-filled with 1 ml of blue latex (VWR 470024-612) was inserted in the apex of the left ventricle to perfuse approximately 600 ml of latex. […]

[3] = system: Retinoblastoma protein (Rb); assay: Western Blot of Rb Ser 807/811 phosphorylation in HUVECs; assay type: cell-based, human; conditions: 24 h
Experimental: FIG. 11B illustrates Western Blot analysis of Rb Ser 807/811 phosphorylation in response to Palbociclib (CDK4/6i) (24 h) in HUVECs.
Primary Human Umbilical Vein Endothelial Cells (HUVECs) were purchased from Lonza (C2519AS) and cultured in EGM™2-Bulletkit™ medium (CC-3156 & CC-4176, Lonza). For VEGF-A- or BMP9-induced signaling response in HUVECs, cells (70% confluent) were treated with Palbociclib (3 mg/ml, CDK4/6i) for 12 h in EGM-2 medium prior to starvation overnight in EMB-2 media (CC-3162 Lonza) supplemented with 0.1% FBS and Palbociclib (3 mg/ml). Cells were stimulated with either VEGF-A (25 ng/ml for 15 min) or BMP9 (1 ng/ml for 2 h) and harvested for Western Blot analysis.
Cells were lysed in RIPA buffer (Abcam, ab206996) and equal amounts of proteins were separated on 4-15% gradient Criterion precast gels (Bio-Rad 567-1084). Proteins were then transferred onto nitrocellulose membranes (Bio-Rad). Western Blots were developed with chemiluminescence HRP substrate (Radiance plus, Azure Biosystems AC2103) on a digital image analyzer, Azure Imager c300.

[4] = system: retinal ECs of Alk1EC^iKO-Fucci2 pups; assay: Endothelial cell cycle state in Alk1EC^iKO-Fucci2 pups; assay type: in vivo, mouse; conditions: Alk1EC^iKO + CDK4/6i
Excerpt: as §1

[5] = system: retinal vascular development of control pups; assay: CDK4/6i treatment alone in control C57BL/6 pups, retinal vasculature; assay type: in vivo, mouse; conditions: P7 control pups, no BMP9/10 Abs
Excerpt: FIGS. 10A and 10B illustrate the timeline used for CDK4/6i treatment alone in C57BL/6 pups and representative images showing retinal vasculature of P7 animals labelled with IB4 (N=3 to 4 animals/group). Vascular perfusion assessed using blue latex dye in lungs (FIGS. 10C-D), duodenum (FIGS. 10E-F) and brain (FIGS. 10G-H) from control, BMP9/10 Abs-treated, BMP9/10 Abs- and CDK4/6i-treated P7 animals. Lung samples have been clarified. Quantifications of intrapulmonary artery diameter (FIG. 10D) and intestinal capillary diameter (FIG. 10F). Red arrows indicate intestinal capillaries (N=3 to 7 animals/group. Data are mean±SEM, one-way ANOVA with Holm-Šidàk's multiple comparison test, **p≤0.01, *p≤0.05, ns p>0.05). Quantification of left middle cerebral artery (MCA) and basilar artery (BA) diameter (FIG. 10H). (N=5 to 9 animals/group. Data are mean±SEM, one-way ANOVA with Holm-Sidak's multiple comparison test, ns p>0.05). Scale bars: (FIGS. 10C and 10G): 2 mm, (E): 1 mm.
Thus, to test whether the use of pharmacological cell cycle modulators could prevent the development of AVMs in a murine model of HHT, we used Palbociclib, a CDK4 and CDK6 inhibitor (CDK4/6i) that blocks the transition from G1 to S state^8. Pups were injected at P2 and P4 with BMP9/10 antibodies, followed by Palbociclib treatment starting at P4, then at P5 and P6 (FIG. 2A).

CC(=O)c1c(C)c2cnc(Nc3ccc(N4CCNCC4)cn3)nc2n(C2CCCC2)c1=O [Palbociclib, 6-acetyl-8-cyclopentyl-5-methyl-2-[5-(1-piperazinyl)pyridine-2-ylamino]pyrido[2,3-d]pyrimidin-7(8H)-one]
EC cell cycle state (early G1, late G1, S/G2/M) in veins, arteries and capillaries [1]: predominantly in late G1 state
vascular malformations in retina of Fucci2 pups [1]: vascular malformations were absent
pAKT activation induced by VEGF-A in Alk1 silenced HUVECs (VEGF-A signaling): did not detect any differences
vasodilation of small capillaries perfusing the duodenum ([2]; duodenum): not prevented by CDK4/6i treatment
lung vascular anomalies and intrapulmonary artery diameter ([2]; lungs): significantly less vascular anomalies and intrapulmonary microvasculature vasodilation
Rb phosphorylation [3]: induced hypo-phosphorylation of the Retinoblastoma protein (Rb)
percentage of ECs residing in the S/G2/M phases ([4]; tamoxifen P3, Palbociclib P4, P5): significantly lower in arteries and capillaries
proportion of ECs in late G1 state ([4]; arteries and capillaries): higher proportion of ECs in late G1 state
cell cycle state of venous ECs ([4]; veins): no significant effects on venous ECs
retinal vascular development under CDK4/6i treatment by itself [5]: did not impair retinal vascular development
